This assay has as its system bFGF-Stimulated Corneal Angiogenesis. Kind of assay: rabbit corneal micropocket model, paralimbal intrascleral injection. The format is in vivo. The following applies: for Area of neovascularisation, MEAN / Area of neovascularisation (individual eye): single (Day 0) intrascleral injection, 100 μl, 2.0 mg/ml in PBS; for Area of neovascularisation, MEAN: mean of 12 eyes; for Area of neovascularisation (individual eye): one value per rabbit eye (R/L); for neovascularisation inhibited compared to the animal group receiving PBS only: single intrascleral injection 100 μl, 2.0 mg/ml, p<0.01. The protocol:
(1996). In this model angiogenesis is stimulated by implantation of Hydron pellets containing an angiogenesis stimulating cytokine like, for example, fibroblast growth factor (FGF) or vascular endothelial growth factor (VEGF) into the cornea. After implantation the active compound to be tested is administered by paralimbal intrascleral injection. Effect on neovascularisation is measured after predetermined time intervals by visual examination using a microscope, photographing and computer-assisted quantification of photographs.
The effect of intrascleral application of an αvβ3 and/or αvβ5 inhibitor was examined in rabbit corneal micropocket model as described by Shaffer R. W. (see above). As an example for an αvβ3 and/or αvβ5 inhibitor (2S)-2-(2,2-dimethylpropyloxycarboxamido)-3-{3,4-dihydro-2-[N-(2-imidazolyl)carbamoylethyl]-(2S)-2H-1,4-benzoxazin-3-on-6-yl}propionic acid was used in the experiment. For induction of angiogenesis Hydron pellets containing basic fibroblast growth factor (bFGF) were used. Preparation of bFGF containing implants was performed by casting Hydron [poly(hydroxyethyl)methacrylate] in specially prepared Teflon pegs that have a 5 mm core drilled into their surfaces. Approximately 12 μl of casting material was placed into each peg and polymerized overnight in a sterile hood, then sterilized by ultraviolet irradiation.
The experiment consisted of 12 animals; in each eye of the animals one individual pellet was implanted into a surgically created “pocket” in the mid stroma of the rabbit cornea. The surgical procedure was done under sterile technique using a Wild model M691 operating microscope equipped with a beamsplitter and camera for photographically recording individual corneas. A 69 Beaver blade was used to create a 3 mm by 5 mm “pocket” to a depth of half the corneal thickness. The stroma was dissected peripherally using an spatula and the pellet implanted with its peripheral margin 2 mm from limbus. Immediately after implantation of bFGF-containing Hydron pellets 6 of the 12 animals received in each eye 100 μl of a drug solution consisting of 2.0 mg/ml (2S)-2-(2,2-dimethylpropyloxycarboxamido)-3-3,4-dihydro-2-[N-(2-imidazolyl)carbamoylethyl]-(2S)-2H-1,4-benzoxazin-3-on-6-yl}propionic acid solubilized in phosphate buffered saline (PBS) by paralimbal intrascleral injection. For comparison the same procedure was performed in the other 6 animals using PBS only. Following implantation the eyes were photographed and the area of neovascularisation measured after predetermined intervals.

Several values for one entry are separate records, joined by “and”; a condition that tells them apart may be missing. Equal values may be shown once.

On to `CC(C)(C)COC(=O)N[C@@H](Cc1ccc2c(c1)NC(=O)[C@H](CCC(=O)Nc1ncc[nH]1)O2)C(=O)O` [(2S)-2-(2,2-dimethylpropyloxycarboxamido)-3-{3,4-dihydro-2-[N-(2-imidazolyl)carbamoylethyl]-(2S)-2H-1,4-benzoxazin-3-on-6-yl}propionic acid], for which the “Area of neovascularisation, MEAN” value (5 Day Post-Implantation) came out at 8.39 mm^2 and the “Area of neovascularisation, MEAN” value (7 Day Post-Implantation) is listed as 10.32 mm^2. The “Area of neovascularisation (individual eye)” value runs as follows: (5 Day Post-Implantation) 3.47 mm^2 and 26.79 mm^2 and 14.76 mm^2 and 7.70 mm^2 and 1.00 mm^2 and 0.88 mm^2 and 8.19 mm^2 and 2.26 mm^2 and 0.0 mm^2 and 7.31 mm^2 and 15.85 mm^2 and 12.45 mm^2; (7 Day Post-Implantation) 6.69 mm^2 and 27.96 mm^2 and 15.58 mm^2 and 11.32 mm^2 and 2.09 mm^2 and 1.91 mm^2 and 11.93 mm^2 and 3.51 mm^2 and 0.0 mm^2 and 11.56 mm^2 and 16.90 mm^2 and 14.40 mm^2. Besides, the “neovascularisation inhibited compared to the animal group receiving PBS only” value came to 56.5% (5 days post implantation) and 52.3% (7 days post implantation).

Values taken from patent US7648959B2, “Methods and compositions for the treatment of diseases of the eye” (Merck Patent GmbH, priority 2000, dated 2010).
